pEC50: −log10 of the molar value. Where a name gives a salt, the structure may show the parent alone. Read-outs that look alike come from different tables or passages of the source.
Columns and labels:
GSH capture assay = format: physicochemical; conditions: GSH (100×), phosphate buffer pH 7.4, 30 °C
[1] = Storage stability as solid or 10 mM DMSO stock solution
[2] = Pharmacokinetics in mice, 10 mg/kg i.v.; format: in vivo, Male CD1 mice; conditions: for half-life: plasma, 10 mg/kg
Method: Although vinyl sulfones have been used as covalent warheads for inhibition of a wide range of cysteine proteases, there are relatively few reports of their use in vivo [14].
Blood samples were centrifuged at 4000× g for 5 min at 4 °C to obtain plasma. The plasma samples from each time point were pooled and then analyzed by LCMS/MS. The PK parameters were estimated by a non-compartmental model using WinNonlin 8.3.

VEEV = conditions: read-out: VEEV EC50 (alphavirus replication); cited from earlier work
VEEV nsP2 protease = conditions: cited from earlier work

Q: With `CS(=O)(=O)CC1CNC(=O)c2cc(NS(=O)(=O)c3ccccc3)nn21` (stereo not shown) (as salt: TFA) [Compound 8, N-(7-((methylsulfonyl)methyl)-4-oxo-4,5,6,7-tetrahydropyrazolo[1,5-a]pyrazin-2-yl)benzenesulfonamide] as the molecule, how does the melting point read?
A: 222 °C

Q: Which “GSH-Adduct Formation (%)” value (GSH capture assay; 8 h) does the source give for `CCOc1ccccc1-c1cc2n(n1)C(CS(C)(=O)=O)CNC2=O` (stereo not shown) [Compound 2, 2-(2-ethoxyphenyl)-7-((methylsulfonyl)methyl)-6,7-dihydropyrazolo[1,5-a]pyrazin-4(5H)-one] here?
A: 0%

Q: And the Stability upon storage [1]?
A: stable

Q: What about the “Plasma exposure relative to 1” value [2] of the same molecule?
A: 4 fold

Q: And the AUC(0-t) ([2]; male, CD1, mouse, iv, pooled plasma)?
A: 3800 ng·h/mL

Q: What about the half-life ([2]; male, CD1, mouse, iv, pooled plasma, read-out: T1/2 (converted)) of the same molecule?
A: 30.6 min

Q: What about the half-life ([2]; male, CD1, mouse, iv, read-out: i.v. half-life) of the same molecule?
A: ~30 min

Q: What about the Clobs ([2]; pooled plasma) of the same molecule?
A: 44 mL/min/kg

Q: And the Vssobs ([2]; pooled plasma)?
A: 0.32 L/kg

Q: Which “GSH-Adduct Formation (%)” value (GSH capture assay; 8 h) does the source give for `CS(=O)(=O)CC1CNC(=O)c2cc(NS(=O)(=O)c3ccccc3)nn21` (stereo not shown) [Compound 8, N-(7-((methylsulfonyl)methyl)-4-oxo-4,5,6,7-tetrahydropyrazolo[1,5-a]pyrazin-2-yl)benzenesulfonamide] here?
A: 3%

Q: What about the “GSH-Adduct Formation (%)” value (GSH capture assay; 24 h) of the same molecule?
A: 6%

Q: With `C[C@@H]1CC(C)(C)Nc2c(C(=O)NC/C=C/S(C)(=O)=O)cccc21` [Compound #11] as the molecule, how does the pEC50 (VEEV) read?
A: 5.85

Q: And the “VEEV nsP2 protease activity inhibition” value (VEEV nsP2 protease)?
A: micromolar inhibitor

— article PMC11279629, “Identification of Dihydropyrazolo[1,5-a]pyrazin-4(5H)-ones as Cyclic Products of β-Amidomethyl Vinyl Sulfone Alphavirus Cysteine Protease Inhibitors” (Pharmaceuticals, 2024)
